{"source": "patent US11660326B2", "about": "“Bacterial-binding peptides for treatment of infectious diseases and related inflammatory processes” (priority 2018, dated 2023)", "key": {"[1]": {"test": "Solid phase binding assay (ELISA) of biotin-labeled peptides to immobilized LTA", "set-up": "species or system S. aureus", "settings": "biotin-labeled peptide 5-20 μg/mL; LTA 5 μg/mL coated", "method": "(§1) FIG. 3. Binding of biotin-labeled CD6-derived peptides to immobilized PAMPs from Gram- and Gram+ origin. Increasing concentrations (5-20 μg/mL) of biotin-labeled CD6- (PD1, PD2, PD3 and cons), DMBT1- (pbs1), and CD5- (PD1) derived peptides were added to 96-well ELISA plates sensitized with E. coli 0111:B4 LPS (A) or S. aureus LTA (B) (5 μg/mL each in PBS). Following overnight incubation at 4° C. bound peptides or proteins were developed by addition of horseradish peroxidase (HRP)-labeled streptavidin and 3,3′,5,5′-tetramethylbenzidine (TMB) substrate and further readings at OD 405-620 nm. Results are expressed as mean±SD of duplicates from one representative experiment of three performed. Statistical analysis was performed by two-way ANOVA (*,P<0.05; **, P<0.01; ***, P<0.001).\n(§2) Solid Phase Binding Assays. 96-well microtiter plates (Nunc, Roskilde, Denmark) were coated overnight at 4° C. with 5 μg/mL of purified LPS (E. coli 0111:B4, Sigma L2630) or LTA (S. aureus, Sigma L2515) in PBS, and then incubated for 2 h at room temperature in blocking solution (20 mM Tris-HCl pH 7.4 plus 0.05% Tween 20 and 1% BSA). Biotin-labeled peptides/proteins (2.5-20 μg/mL) were added and incubated overnight at 4° C. in blocking solution. After extensive washing, bound peptides/proteins were detected by the addition of horseradish peroxidase (HRP)-labeled streptavidin (1:5,000 dilution; DAKO) for 1 h at room temperature. Color was developed by adding 3,3′,5,5′-tetramethylbenzidine (TMB) liquid substrate (Sigma), and optical density read at 405-620 nm."}, "[2]": {"test_system": "mice undergoing CLP-induced septic shock", "test": "Blood and spleen bacterial load following CLP-induced sepsis", "type": "in vivo, C57BL/6J mice", "settings": "20 h post CLP; 6 mg/kg i.v. at +1 h; vs saline control group", "method": "(§3) FIG. 9. Therapeutic effect of CD6.PD3 infusion on cytokine and bacterial load levels following CLP-induced sepsis. (A) C57BL/6J mice were i.v. infused at +1 h post CLP with saline (n=7) or CD6.PD3 peptide (6 mg/kg; n=9), and cytokine plasma levels were monitored by ELISA at different time points (4 h and 20 h) thereafter. Data are expressed as mean±SD. (B) Same mouse groups as in (A) were monitored for blood and spleen bacterial load at 20 h following CLP induction. Data are expressed as mean±SD of CFU/mg (spleen) or CFU/μL (blood). In all cases, statistical differences were evaluated using a 2-tailed Student t-test (*, P<0.05).\nFor the assessment of bacterial load, blood and spleen samples from CLP-treated mice were collected, homogenized and diluted aseptically in sterile PBS. Serial dilutions were plated overnight on agar with 5% sheep blood (Becton Dickinson) at 37° C. Viable bacterial counts were expressed as CFU/mL (blood) or per mg (spleen)."}, "[3]": {"test": "Solid phase binding assay (ELISA) of biotin-labeled peptides to immobilized LPS", "set-up": "species or system E. coli", "settings": "biotin-labeled peptide 5-20 μg/mL; LPS 5 μg/mL coated", "method": "as §1, §2"}, "[4]": {"test_system": "mice undergoing CLP-induced septic shock", "test": "Plasma cytokine levels following CLP-induced sepsis", "type": "in vivo, C57BL/6J mice", "settings": "20 h post CLP; 6 mg/kg i.v. at +1 h; vs saline-treated group", "method": "as §3\nAnimal procedures were approved by the Animal Experimentation Ethical Committee, University of Barcelona. High-grade mortality (≥90% mortality within the first 48-72 h) CLP-induced septic shock was induced in 8-10 week old C57BL/6J male mice (20-25 g; Charles River) as previously reported (Martinez-Florensa M, et al., 2017, Protective Effects of Human and Mouse Soluble Scavenger-Like CD6 Lymphocyte Receptor in a Lethal Model of Polymicrobial Sepsis, Antimicrob Agents Chemother 61:e01391-16)."}}}
{"sequence": "GQVEVHFRGVW (CD6.PD3)", "values": [{"measurement": "binding to immobilized LTA (ELISA)", "setting": "[1]", "value": "excelled in its ability to bind"}, {"measurement": "CFU isolated from blood", "setting": "[2]", "value": "lower CFU"}, {"measurement": "CFU isolated from spleen", "setting": "[2]", "value": "lower CFU"}, {"measurement": "binding to immobilized LPS (ELISA)", "setting": "[3]", "value": "excelled in its ability to bind"}, {"measurement": "IL-1β level", "setting": "[4]", "value": "significant lower levels"}, {"measurement": "IL-6 level", "setting": "[4]", "value": "significant lower levels"}, {"measurement": "TNF-α level", "setting": "[4]", "value": "significant lower levels"}]}
